According to PMC4549708, “Inhibition of neuraminidase by Ganoderma triterpenoids and implications for neuraminidase inhibitor design” (Scientific Reports, 2015):

What was measured:
[1] = molecular target: NA (H1N1,09) (Influenza A virus, UniProt C3W5S3); experiment: biochemical; conditions: for inhibition at 200 µM / Inhibition rate (%) NA(H1N1,09): 200 μM of each compound, n = 3, means ± standard deviation; for inhibition at 200 µM: read-out: Inhibition rate (%) NA(H1N1,09); for IC50: in vitro NA inhibition assay (n = 3)
[2] = molecular target: NA (H5N1) (Influenza A virus, UniProt K0C216); experiment: biochemical; conditions: for inhibition at 200 µM: read-out: Inhibition rate (%) NA (H5N1); for Inhibition rate (%) NA (H5N1): 200 µM
[3] = system: NA (H7N9); format: biochemical; conditions: 200 µM
[4] = in vitro; conditions: human
[5] = system: MCF7 cells

C/C(=C\C(=O)CC(C)C(=O)O)[C@H]1C[C@H](O)[C@@]2(C)C3=C(C(=O)C[C@]12C)[C@@]1(C)CCC(=O)C(C)(C)[C@@H]1C[C@@H]3O (stereo partly shown) [Compound 8, Ganoderenic acid A]
inhibition at 200 µM [1]: 35.3 ± 3.7%
inhibition at 200 µM [2]: 35.9 ± 7.7%
Inhibition rate (%) NA(H7N9) [3]: 23.3 ± 3.1%
CC50 [4]: > 200 µM

CC(=O)O[C@H]1C[C@H]([C@H](C)CC/C=C(\C)C(=O)O)[C@@]2(C)CC=C3C(=CC[C@H]4C(C)(C)[C@@H](O)CC[C@]34C)[C@]12C [Compound 3, Ganoderic acid T-N]
Inhibition rate (%) NA(H1N1,09) [1]: 72.0 ± 5.5%
IC50 [1]: 42 ± 13.5 µM
IC50 [2]: 2.7 ± 0.4 µM
Inhibition rate (%) NA (H5N1) [2]: 91.1 ± 0.8%
Inhibition rate (%) NA(H7N9) [3]: 25.6 ± 1.6%
CC50 [5]: 24.4 ± 2.4 µM

CC(=O)O[C@@H]1C(=O)C2=C(C(=O)C[C@H]3C(C)(C)C(=O)CC[C@]23C)[C@]2(C)C(=O)C[C@H]([C@H](C)CC(=O)CC(C)C(=O)O)[C@@]12C (stereo partly shown) [Compound 24, Ganoderic acid F]
inhibition at 200 µM [1]: 12.9 ± 11.4%
inhibition at 200 µM [2]: 48.6 ± 7.4%
Inhibition rate (%) NA(H7N9) [3]: 14.8 ± 2.6%
CC50 [4]: > 200 µM

C[C@H](CC(=O)C[C@@H](C)[C@H]1C[C@H](O)[C@@]2(C)C3=C(C(=O)C[C@]12C)[C@@]1(C)CCC(=O)C(C)(C)[C@@H]1C[C@@H]3O)C(=O)O [Compound 7, Ganoderic acid A]
inhibition at 200 µM [1]: 5 ± 5.4%
inhibition at 200 µM [2]: 31.4 ± 7.3%
Inhibition rate (%) NA(H7N9) [3]: 6.3 ± 2.2%
CC50 [4]: > 200 µM

C/C(=C\C(=O)CC(C)C(=O)O)C1CC(O)C2(C)C3=C(C(=O)CC12C)C1(C)CCC(O)C(C)(C)C1CC3O (stereo not shown) [Compound 16, Ganoderenic acid C]
Inhibition rate (%) NA(H1N1,09) [1]: 27.9 ± 0.3%
Inhibition rate (%) NA (H5N1) [2]: 30.6 ± 4.5%
Inhibition rate (%) NA(H7N9) [3]: 27.2 ± 0.5%
CC50 [5]: > 200 µM

C[C@H](CC(=O)C[C@@H](C)[C@H]1CC(=O)[C@@]2(C)C3=C(C(=O)C[C@]12C)[C@@]1(C)CCC(=O)C(C)(C)[C@@H]1C[C@@H]3O)C(=O)O [Compound 19, Ganoderic acid C1]
inhibition at 200 µM [1]: 21.1 ± 4.1%
inhibition at 200 µM [2]: 43.3 ± 6.1%
Inhibition rate (%) NA(H7N9) [3]: 26.2 ± 4.1%
CC50 [4]: > 200 µM

C[C@H](CC(=O)C[C@@H](C)[C@H]1C[C@H](O)[C@@]2(C)C3=C(C(=O)C[C@]12C)[C@@]1(C)CC[C@H](O)C(C)(C)[C@@H]1C[C@@H]3O)C(=O)O [Compound 9, Ganoderic acid C2]
inhibition at 200 µM [1]: 32.4 ± 4.5%
inhibition at 200 µM [2]: 60.8 ± 4.3%
Inhibition rate (%) NA(H7N9) [3]: 27.5 ± 2.3%
CC50 [4]: > 200 µM

CC(CC(=O)C[C@@H](C)[C@H]1CC(=O)[C@@]2(C)C3=C(C(=O)C[C@]12C)[C@@]1(C)CC[C@H](O)C(C)(C)[C@@H]1CC3=O)C(=O)O (stereo partly shown) [Compound 10, Ganoderic acid AM1]
inhibition at 200 µM [1]: 28.3 ± 6.2%
inhibition at 200 µM [2]: 75.2 ± 2.3%
Inhibition rate (%) NA(H7N9) [3]: 14.1 ± 5.1%
CC50 [4]: > 200 µM

C[C@H](CC[C@H](O)[C@](C)(O)CO)[C@H]1CC[C@@]2(C)C3=CC[C@H]4C(C)(C)C(=O)CC[C@]4(C)C3=CC[C@]12C [Compound 29, Ganodermanontriol]
inhibition at 200 µM [1]: 35.3 ± 5.2%
inhibition at 200 µM [2]: 60.5 ± 6.8%
Inhibition rate (%) NA(H7N9) [3]: 10.3 ± 3.5%
CC50 [4]: > 200 µM

CC(=O)O[C@@H]1C(=O)C2=C(C(=O)C[C@H]3C(C)(C)[C@@H](O)CC[C@]23C)[C@]2(C)C(=O)C[C@H]([C@H](C)CC(=O)CC(C)C(=O)O)[C@@]12C (stereo partly shown) [Compound 13, Ganoderic acid H]
inhibition at 200 µM [1]: 35 ± 4.5%
inhibition at 200 µM [2]: 64.1 ± 4.5%
Inhibition rate (%) NA(H7N9) [3]: 27.2 ± 3.2%
CC50 [4]: > 200 µM

C/C(=C\C(=O)CC(C)C(=O)O)[C@H]1CC(=O)[C@@]2(C)C3=C(C(=O)C[C@]12C)[C@@]1(C)CCC(=O)C(C)(C)[C@@H]1CC3=O (stereo partly shown) [Compound 15, Ganoderenic acid F]
inhibition at 200 µM [1]: 53.1 ± 1.6%
inhibition at 200 µM [2]: 62.8 ± 4%
Inhibition rate (%) NA(H7N9) [3]: 34.2 ± 4.7%
CC50 [4]: 111 ± 17.9 µM

C/C(=C\C(=O)CC(C)C(=O)O)[C@H]1CC(=O)[C@@]2(C)C3=C(C(=O)C[C@]12C)[C@@]1(C)CC[C@H](O)C(C)(C)[C@@H]1CC3=O (stereo partly shown) [Compound 12, Ganoderenic acid H]
inhibition at 200 µM [1]: 58 ± 3%
inhibition at 200 µM [2]: 77.7 ± 3.9%
Inhibition rate (%) NA(H7N9) [3]: 38.6 ± 6.2%
CC50 [4]: > 200 µM

C[C@H](CC[C@H](O)C(C)(C)O)[C@H]1CC[C@@]2(C)C3=CC[C@H]4C(C)(C)C(=O)CC[C@]4(C)C3=CC[C@]12C [Compound 28, Ganodermanondiol]
inhibition at 200 µM [2]: 87.9 ± 1.8%
Inhibition rate (%) NA(H7N9) [3]: 24.3 ± 1.7%
CC50 [4]: 64.9 ± 10 µM

C/C(=C\CC[C@@H](C)[C@H]1CC[C@@]2(C)C3=CC[C@H]4C(C)(C)C(=O)CC[C@]4(C)C3=CC[C@]12C)CO [Compound 25, Ganoderol A]
inhibition at 200 µM [1]: 48.3 ± 2.2%
inhibition at 200 µM [2]: 77.1 ± 0.4%
Inhibition rate (%) NA(H7N9) [3]: 15.9 ± 3.7%
CC50 [4]: 20.4 ± 0.9 µM

C/C(=C\CC[C@@H](C)[C@H]1CC[C@@]2(C)C3=CC[C@H]4C(C)(C)[C@@H](O)CC[C@]4(C)C3=CC[C@]12C)C(=O)O [Compound 6, Ganoderic acid Y]
inhibition at 200 µM [1]: 63 ± 2.5%
inhibition at 200 µM [2]: 78.2 ± 3.2%
Inhibition rate (%) NA(H7N9) [3]: 17.8 ± 1.5%
CC50 [4]: 18 ± 1.3 µM

C/C(C=O)=C\CC[C@@H](C)[C@H]1CC[C@@]2(C)C3=CC[C@H]4C(C)(C)[C@@H](O)CC[C@]4(C)C3=CC[C@]12C [Compound 30, Lucialdehyde A]
Inhibition rate (%) NA(H1N1,09) [1]: 57.6 ± 1.7%
IC50 [2]: 164 ± 18 µM
Inhibition rate (%) NA (H5N1) [2]: 67.1 ± 5.7%
Inhibition rate (%) NA(H7N9) [3]: 24.5 ± 1.6%
CC50 [5]: 34.7 ± 5.5 µM

CC(CC(=O)C[C@@H](C)[C@H]1C[C@H](O)[C@@]2(C)C3=C(C(=O)C[C@]12C)[C@@]1(C)CCC(=O)C(C)(C)[C@@H]1CC3)C(=O)O (stereo partly shown) [Compound 21, Ganolucidic acid A]
inhibition at 200 µM [1]: 19.4 ± 2.7%
inhibition at 200 µM [2]: 49.8 ± 7.7%
Inhibition rate (%) NA(H7N9) [3]: 16.7 ± 3.4%
CC50 [4]: > 200 µM

C/C(=C\CC[C@@H](C)[C@H]1CC[C@@]2(C)C3=CC[C@H]4C(C)(C)[C@@H](O)CC[C@]4(C)C3=CC[C@]12C)CO [Compound 26, Ganoderol B]
inhibition at 200 µM [1]: 51 ± 2.6%
inhibition at 200 µM [2]: 71.6 ± 2.1%
Inhibition rate (%) NA(H7N9) [3]: 21.8 ± 3.5%
CC50 [4]: > 200 µM

C/C(=C\[C@@H](O)C[C@@H](C)[C@H]1CC(=O)[C@@]2(C)C3=C(C(=O)C[C@]12C)[C@@]1(C)CC[C@H](O)C(C)(C)[C@@H]1CC3=O)C(=O)O [Compound 22, Ganoderic acid Zeta]
Inhibition rate (%) NA(H1N1,09) [1]: 35.9 ± 5.3%
Inhibition rate (%) NA (H5N1) [2]: 0.0%
Inhibition rate (%) NA(H7N9) [3]: 17.7 ± 2.4%
CC50 [5]: > 200 µM

C/C(=C\CC[C@@H](C)[C@H]1CC[C@@]2(C)C3=C(CC[C@]12C)[C@@]1(C)CCC(=O)C(C)(C)[C@@H]1CC3=O)C(=O)O [Compound 20, Ganoderic acid DM]
inhibition at 200 µM [1]: 50.4 ± 1.5%
inhibition at 200 µM [2]: 55.2 ± 0.7%
Inhibition rate (%) NA(H7N9) [3]: 29.4 ± 3.8%
CC50 [4]: > 200 µM

CC(CC(=O)C[C@@H](C)[C@H]1CC(=O)[C@@]2(C)C3=C(C(=O)[C@@H](O)[C@]12C)[C@@]1(C)CC[C@H](O)C(C)(C)[C@@H]1CC3=O)C(=O)O (stereo partly shown) [Compound 18, Ganoderic acid C6]
inhibition at 200 µM [1]: 17.8 ± 1.2%
inhibition at 200 µM [2]: 15.6 ± 22.3%
Inhibition rate (%) NA(H7N9) [3]: 25.7 ± 1.3%
CC50 [4]: > 200 µM

C/C(=C\[C@@H](O)C[C@@H](C)[C@H]1CC(=O)[C@@]2(C)C3=C(C(=O)C[C@]12C)[C@@]1(C)CCC(=O)C(C)(C)[C@@H]1C[C@@H]3O)C(=O)O [Compound 23, Ganoderic acid LM2]
inhibition at 200 µM [1]: 40.9 ± 6.2%
inhibition at 200 µM [2]: 67.1 ± 5.2%
Inhibition rate (%) NA(H7N9) [3]: 12.7 ± 9.6%
CC50 [4]: > 200 µM

CC(=O)O[C@@H]1C(=O)C2=C([C@@H](O)C[C@H]3C(C)(C)[C@@H](O)CC[C@]23C)[C@]2(C)C(=O)C[C@H]([C@H](C)CC(=O)CC(C)C(=O)O)[C@@]12C (stereo partly shown) [Compound 11, Ganoderic acid K]
inhibition at 200 µM [1]: 28.8 ± 2%
inhibition at 200 µM [2]: 57.7 ± 10.9%
Inhibition rate (%) NA(H7N9) [3]: 28.5 ± 1.9%
CC50 [4]: > 200 µM

C[C@H](CCC=C(CO)CO)[C@H]1CC[C@@]2(C)C3=CC[C@H]4C(C)(C)C(=O)CC[C@]4(C)C3=CC[C@]12C [Compound 27, Ganoderiol F]
inhibition at 200 µM [1]: 52.9 ± 2%
inhibition at 200 µM [2]: 33.6 ± 12.1%
Inhibition rate (%) NA(H7N9) [3]: 29.5 ± 4.3%
CC50 [4]: > 200 µM

Ganoderenic acid D [Compound 17]
Inhibition rate (%) NA(H1N1,09) [1]: 50.4 ± 3.0%
IC50 [2]: 123 ± 22.5 µM
Inhibition rate (%) NA (H5N1) [2]: 74.2 ± 2.2%
Inhibition rate (%) NA(H7N9) [3]: 35.9 ± 2.8%
CC50 [5]: > 200 µM

CC(CC(=O)C[C@@H](C)[C@H]1CC(=O)[C@@]2(C)C3=C(C(=O)C[C@]12C)[C@@]1(C)CC[C@H](O)C(C)(C)[C@@H]1C[C@@H]3O)C(=O)O (stereo partly shown) [Compound 14, Ganoderic acid B]
inhibition at 200 µM [1]: 6.9 ± 6.8%
inhibition at 200 µM [2]: 3 ± 1%
Inhibition rate (%) NA(H7N9) [3]: 5.5 ± 0.4%
CC50 [4]: > 200 µM

C/C(C=O)=C\CC[C@@H](C)[C@H]1CC[C@@]2(C)C3=C(CC[C@]12C)[C@@]1(C)CCC(=O)C(C)(C)[C@@H]1CC3=O [Compound 31, Lucialdehyde B]
inhibition at 200 µM [1]: 51.4 ± 2.5%
inhibition at 200 µM [2]: 86.7 ± 0.8%
Inhibition rate (%) NA(H7N9) [3]: 30.4 ± 3.5%
CC50 [4]: 7.1 ± 0.3 µM

C/C(=C/CC[C@@H](C)[C@H]1CC[C@@]2(C)C3=CC[C@H]4C(C)(C)C(=O)CC[C@]4(C)C3=CC[C@]12C)C(=O)O [Compound 4, Ganoderic acid Sz]
Inhibition rate (%) NA(H1N1,09) [1]: 60.1 ± 4.8%
IC50 [1]: 101 ± 35.9 µM
Inhibition rate (%) NA (H5N1) [2]: 0.0%
Inhibition rate (%) NA(H7N9) [3]: 17.8 ± 4.0%
CC50 [5]: 50.6 ± 0.1 µM

C/C(=C/CC[C@@H](C)[C@H]1CC[C@@]2(C)C3=CC[C@H]4C(C)(C)C(=O)CC[C@]4(C)C3=CC[C@]12C)C(=O)O [Compound 5, Ganoderic acid S]
inhibition at 200 µM [1]: 69.4 ± 2.3%
IC50 [1]: 80.5 ± 24.9 µM
inhibition at 200 µM [2]: 86.7 ± 0.5%
Inhibition rate (%) NA(H7N9) [3]: 31.9 ± 2.3%
CC50 [4]: 80.9 ± 6.8 µM
